Results on 16 compounds are retold here after patent US20230167114A1, “MACROCYCLIC JAK INHIBITOR AND USE THEREOF” (Biopolar Hongye (Guangdong) Pharmaceutical Co., Ltd., priority 2020, published 2023).

Molecules are shown by their SMILES.

Format in all cases: biochemical
Assay [1] addresses JAK1 (Homo sapiens, UniProt P23458). As to the kind of experiment: JAK kinase activity, homogeneous time-resolved fluorescence (JAK1 reaction system). As to conditions: ATP 2 μM, JAK1 protein 0.2 ng/μL; read-out: JAK 1 activity. As for the experimental part: (§1) The activity measurement method of JAK kinase was to use homogeneous time-resolved fluorescence technique. The reaction was performed in 384 shallow well plates with a total reaction volume of 10 μL. The mixture of kinase protein, compound, ATP and substrate was carried out in a reaction buffer of 50 mM Hepes (pH7.0), NaN3 0.02%, BSA 0.01%, 0.1 mM orthocanadate, 5 mM MgCl2, and 1 mM DTT. After reacting for 1 hour, antibody capable of recognizing substrate phosphorylation and dye XL-615 and detection buffer (Cisbio) containing EDTA were added to the system. The reaction signal of kinase was detected by PE company's porous plate detector. The parameter settings were excitation light at 320 nm, emission light at 615 nm and 665 nm. The activity of JAK is indirectly reflected by the signal ratio of 665 nm and 615 nm. In the reaction, the background well without enzyme and the total enzyme activity well without compound were set.
(§2) The IC50 value of the compound inhibiting protein was obtained by the formula: Y=100/(1+10^((Log IC50−X)*HillSlope)).
In JAK1 reaction system, the concentration of ATP was 2 μM, and the concentration of JAK1 protein was 0.2 ng/μL.

The target in assay [2] is JAK2 (Homo sapiens, UniProt O60674). Nature of the assay: JAK kinase activity, homogeneous time-resolved fluorescence (JAK2 reaction system). To be noted: ATP 2 μM, JAK2 protein 0.01 ng/μL. As for the experimental part: as §1, §2
In JAK2 reaction system, the concentration of ATP was 2 μM, and the concentration of JAK2 protein was 0.01 ng/μL.

Assay [3] concerns the target T1, JAK3 (Homo sapiens, UniProt P52333).
T1 sequence (P52333 1-1124): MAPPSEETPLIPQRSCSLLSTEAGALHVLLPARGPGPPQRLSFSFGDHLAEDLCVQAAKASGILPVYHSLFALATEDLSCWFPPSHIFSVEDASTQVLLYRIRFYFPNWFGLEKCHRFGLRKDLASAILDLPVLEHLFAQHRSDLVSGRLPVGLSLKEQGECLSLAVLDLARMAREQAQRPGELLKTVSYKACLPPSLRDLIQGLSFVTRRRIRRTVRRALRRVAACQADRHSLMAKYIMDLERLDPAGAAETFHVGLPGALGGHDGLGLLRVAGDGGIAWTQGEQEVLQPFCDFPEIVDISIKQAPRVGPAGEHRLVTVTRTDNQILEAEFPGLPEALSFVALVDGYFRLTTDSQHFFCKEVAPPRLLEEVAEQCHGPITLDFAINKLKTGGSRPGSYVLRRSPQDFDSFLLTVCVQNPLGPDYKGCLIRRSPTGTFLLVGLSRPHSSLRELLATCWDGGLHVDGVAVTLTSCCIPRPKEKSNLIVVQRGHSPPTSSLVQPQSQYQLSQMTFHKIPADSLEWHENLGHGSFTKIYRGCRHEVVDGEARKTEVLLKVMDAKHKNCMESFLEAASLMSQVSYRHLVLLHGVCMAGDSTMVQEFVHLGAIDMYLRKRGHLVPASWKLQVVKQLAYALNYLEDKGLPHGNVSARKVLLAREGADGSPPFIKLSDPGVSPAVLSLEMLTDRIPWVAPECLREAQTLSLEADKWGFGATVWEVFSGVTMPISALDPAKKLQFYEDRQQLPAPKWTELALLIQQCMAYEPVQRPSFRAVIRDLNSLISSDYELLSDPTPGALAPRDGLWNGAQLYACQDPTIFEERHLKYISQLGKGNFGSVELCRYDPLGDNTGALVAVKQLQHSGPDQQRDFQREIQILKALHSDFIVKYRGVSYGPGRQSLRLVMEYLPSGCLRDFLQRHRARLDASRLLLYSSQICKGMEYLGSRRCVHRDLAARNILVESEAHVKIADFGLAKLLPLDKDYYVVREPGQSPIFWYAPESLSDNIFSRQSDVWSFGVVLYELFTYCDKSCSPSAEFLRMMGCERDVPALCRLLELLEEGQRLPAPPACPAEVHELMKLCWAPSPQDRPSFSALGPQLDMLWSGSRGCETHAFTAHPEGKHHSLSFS
Nature of the assay: JAK kinase activity, homogeneous time-resolved fluorescence (JAK3 reaction system). To be noted: ATP 2 μM, JAK3 protein 0.04 ng/μL; read-out: JAK 3 activity. The procedure:
as §1, §2
In JAK3 reaction system, the concentration of ATP was 2 μM, and the concentration of JAK3 protein was 0.04 ng/μL.

Assay [4] addresses TYK2 (Homo sapiens, UniProt P29597). As to the kind of experiment: JAK kinase activity, homogeneous time-resolved fluorescence (TYK2 reaction system). As to conditions: ATP 2 μM, TYK2 protein 0.2 ng/μL; read-out: TYK 2 activity. As for the experimental part:
as §1, §2
In TYK2 reaction system, the concentration of ATP was 2 μM and the concentration of TYK2 protein was 0.2 ng/μL.

Chain of TYK2 (P29597 whole entry): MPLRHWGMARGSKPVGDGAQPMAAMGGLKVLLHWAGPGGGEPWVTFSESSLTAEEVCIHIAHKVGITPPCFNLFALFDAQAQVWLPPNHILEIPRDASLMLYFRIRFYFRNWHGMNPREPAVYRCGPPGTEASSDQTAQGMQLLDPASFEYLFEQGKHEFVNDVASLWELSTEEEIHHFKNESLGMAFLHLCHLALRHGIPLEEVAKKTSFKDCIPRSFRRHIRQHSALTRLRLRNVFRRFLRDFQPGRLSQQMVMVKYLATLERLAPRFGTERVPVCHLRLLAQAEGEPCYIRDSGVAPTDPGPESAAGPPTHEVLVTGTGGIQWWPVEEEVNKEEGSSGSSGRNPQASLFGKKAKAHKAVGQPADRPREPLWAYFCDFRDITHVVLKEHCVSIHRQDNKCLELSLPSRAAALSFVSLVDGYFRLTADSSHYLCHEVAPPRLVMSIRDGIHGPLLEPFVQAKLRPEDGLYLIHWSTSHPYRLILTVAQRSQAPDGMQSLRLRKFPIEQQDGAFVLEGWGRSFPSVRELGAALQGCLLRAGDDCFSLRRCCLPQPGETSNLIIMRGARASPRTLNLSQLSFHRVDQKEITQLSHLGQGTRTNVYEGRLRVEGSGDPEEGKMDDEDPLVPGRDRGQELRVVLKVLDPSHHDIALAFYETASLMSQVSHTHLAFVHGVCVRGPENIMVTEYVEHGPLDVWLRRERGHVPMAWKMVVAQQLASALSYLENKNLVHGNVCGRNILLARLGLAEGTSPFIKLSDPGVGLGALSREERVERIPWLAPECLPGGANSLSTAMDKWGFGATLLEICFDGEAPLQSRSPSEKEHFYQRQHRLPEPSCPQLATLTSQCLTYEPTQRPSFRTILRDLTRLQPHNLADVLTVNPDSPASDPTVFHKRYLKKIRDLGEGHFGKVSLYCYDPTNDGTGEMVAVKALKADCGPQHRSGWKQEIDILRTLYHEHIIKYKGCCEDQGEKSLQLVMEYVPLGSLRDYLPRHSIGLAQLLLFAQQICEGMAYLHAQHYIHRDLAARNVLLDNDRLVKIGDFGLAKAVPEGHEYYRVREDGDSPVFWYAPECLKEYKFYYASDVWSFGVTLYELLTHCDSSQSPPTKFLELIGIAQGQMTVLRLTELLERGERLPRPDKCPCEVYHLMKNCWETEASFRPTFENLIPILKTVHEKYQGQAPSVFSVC
Chain of JAK2 (O60674 whole entry): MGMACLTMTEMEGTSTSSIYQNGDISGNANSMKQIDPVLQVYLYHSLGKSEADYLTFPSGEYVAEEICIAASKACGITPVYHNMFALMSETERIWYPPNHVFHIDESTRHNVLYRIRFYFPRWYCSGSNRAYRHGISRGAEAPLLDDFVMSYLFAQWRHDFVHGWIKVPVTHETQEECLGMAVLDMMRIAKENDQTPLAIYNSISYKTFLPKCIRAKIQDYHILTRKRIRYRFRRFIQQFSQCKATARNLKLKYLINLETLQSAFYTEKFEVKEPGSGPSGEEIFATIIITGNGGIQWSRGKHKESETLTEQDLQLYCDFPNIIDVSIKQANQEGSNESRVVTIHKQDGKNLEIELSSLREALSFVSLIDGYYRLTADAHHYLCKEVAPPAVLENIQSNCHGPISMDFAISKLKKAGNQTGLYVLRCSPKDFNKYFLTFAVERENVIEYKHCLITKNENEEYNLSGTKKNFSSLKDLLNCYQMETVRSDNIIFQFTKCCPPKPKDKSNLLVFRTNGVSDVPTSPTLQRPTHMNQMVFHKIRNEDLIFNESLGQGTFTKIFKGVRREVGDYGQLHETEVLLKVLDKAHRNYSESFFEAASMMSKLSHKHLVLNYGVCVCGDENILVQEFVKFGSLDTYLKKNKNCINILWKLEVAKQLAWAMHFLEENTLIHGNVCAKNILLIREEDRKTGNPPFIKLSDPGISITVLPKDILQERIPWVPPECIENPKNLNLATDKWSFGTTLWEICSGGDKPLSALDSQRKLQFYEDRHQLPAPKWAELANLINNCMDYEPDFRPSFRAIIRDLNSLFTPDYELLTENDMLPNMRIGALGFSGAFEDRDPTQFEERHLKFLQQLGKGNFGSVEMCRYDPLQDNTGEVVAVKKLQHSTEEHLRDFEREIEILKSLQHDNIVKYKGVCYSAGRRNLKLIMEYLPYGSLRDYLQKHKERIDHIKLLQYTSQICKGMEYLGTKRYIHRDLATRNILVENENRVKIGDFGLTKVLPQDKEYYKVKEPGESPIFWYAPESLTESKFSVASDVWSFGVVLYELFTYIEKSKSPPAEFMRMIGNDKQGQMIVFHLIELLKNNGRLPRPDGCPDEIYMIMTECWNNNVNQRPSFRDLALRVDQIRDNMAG
Chain of JAK1 (P23458 whole entry): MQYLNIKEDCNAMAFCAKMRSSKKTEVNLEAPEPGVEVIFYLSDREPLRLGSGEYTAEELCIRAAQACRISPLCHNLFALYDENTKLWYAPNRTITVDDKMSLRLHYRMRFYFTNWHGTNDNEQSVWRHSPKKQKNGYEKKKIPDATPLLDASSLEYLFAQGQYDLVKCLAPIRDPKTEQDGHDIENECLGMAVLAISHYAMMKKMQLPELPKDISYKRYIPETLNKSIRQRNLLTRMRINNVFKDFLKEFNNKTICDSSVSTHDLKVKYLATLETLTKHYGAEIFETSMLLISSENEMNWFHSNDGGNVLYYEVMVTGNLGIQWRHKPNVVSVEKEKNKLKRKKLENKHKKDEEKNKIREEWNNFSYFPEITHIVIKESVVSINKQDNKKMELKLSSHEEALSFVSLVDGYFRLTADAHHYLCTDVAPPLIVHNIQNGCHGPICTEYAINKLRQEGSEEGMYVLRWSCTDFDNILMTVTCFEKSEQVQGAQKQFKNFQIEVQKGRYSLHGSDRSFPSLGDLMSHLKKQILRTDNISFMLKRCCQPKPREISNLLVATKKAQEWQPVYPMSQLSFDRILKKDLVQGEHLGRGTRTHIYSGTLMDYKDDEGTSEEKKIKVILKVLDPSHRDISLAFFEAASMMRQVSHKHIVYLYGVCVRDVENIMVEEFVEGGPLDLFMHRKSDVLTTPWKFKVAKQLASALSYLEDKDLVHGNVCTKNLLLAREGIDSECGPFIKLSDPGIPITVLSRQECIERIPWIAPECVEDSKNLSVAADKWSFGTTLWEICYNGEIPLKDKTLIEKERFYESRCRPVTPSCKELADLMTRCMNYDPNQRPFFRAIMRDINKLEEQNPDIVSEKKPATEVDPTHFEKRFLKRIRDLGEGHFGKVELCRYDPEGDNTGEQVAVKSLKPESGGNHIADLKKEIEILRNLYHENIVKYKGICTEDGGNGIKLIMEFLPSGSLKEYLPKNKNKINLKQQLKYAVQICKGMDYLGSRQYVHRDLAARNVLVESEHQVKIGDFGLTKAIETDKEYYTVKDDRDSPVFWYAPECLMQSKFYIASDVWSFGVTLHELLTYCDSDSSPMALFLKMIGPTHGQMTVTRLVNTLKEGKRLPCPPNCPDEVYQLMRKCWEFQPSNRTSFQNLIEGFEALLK

Turning to `Cc1cnc2nc1NCCCCCNC(=O)c1ccc(cc1C(=O)O)-c1cnc(F)c(c1)N2` [Compound 21], the IC50 in assay [1] lay in the range of 101 to 1000 nM; in assay [2] it was 11 to 100 nM; in assay [3] it was 101 to 1000 nM; in assay [4], 1000 to 10000 nM.
Take `Cc1cnc2nc1Nc1cccc(c1)CCCNC(=O)c1c(F)cc(cc1F)-c1cnc(F)c(c1)N2` [Compound 31, 1^3,1^5,2^6-trifluoro-4^5-methyl-3,5,10-triaza-4(2,4)-pyrimidina-2(3,5)-pyridina-1(1,4),6(1,3)-dibenzenacycloundecaphan-11-one]: the IC50 in assay [1] is 101 to 1000 nM; in assay [2] it was 101 to 1000 nM; in assay [3], 1000 to 10000 nM; in assay [4] it was greater than 10000 nM.
In the case of `Cc1cnc2nc1Nc1cccc(c1)CCNC(=O)c1ccc(cc1F)-c1cnc(F)c(c1)N2` [Compound 28, 1^3,2^6-difluoro-4^5-methyl-3,5,9-triaza-4(2,4)-pyrimidina-2(3,5)-pyridina-1(1,4),6(1,3)-dibenzenacyclodecaphan-10-one], the IC50 was less than 10 nM in assay [1], 11 to 100 nM in assay [2], 11 to 100 nM in assay [3] and 1000 to 10000 nM in assay [4].
For `O=C1NCCCCCNc2nc(ncc2F)Nc2cc(cnc2F)-c2ccc1cc2` [Compound 4, 2^6,4^5-difluoro-3,5,11-triaza-4(2,4)-pyrimidina-2(3,5)-pyridina-1(1,4)-benzenacyclododecaphan-12-one], the IC50 in assay [1] is 1000 to 10000 nM; in assay [2], 101 to 1000 nM; in assay [3], 1000 to 10000 nM; in assay [4], greater than 10000 nM.
For the compound `Cc1cnc2nc1NCCCCNC(=O)c1ccc(cc1F)-c1cnc(F)c(c1)N2` [Compound 7, 1^2,2^6-difluoro-4^5-methyl-3,5,10-triaza-4(2,4)-pyrimidina-2(3,5)-pyridina-1(1,4)-benzenacycloundecaphan-11-one], the IC50 in assay [1] lay in the range of 11 to 100 nM; in assay [2], 101 to 1000 nM; in assay [3], 1000 to 10000 nM; in assay [4] it was 1000 to 10000 nM.
With `Cc1cnc2nc1NCCCCCCNC(=O)c1ccc(cc1F)-c1cnc(F)c(c1)N2` [Compound 13, I^3,2^6-difluoro-4^5-methyl-3,5,12-triaza-4(2,4)-pyrimidina-2(3,5)-pyridina-1(1,4)-benzenacyclotridecaphan-13-one], the IC50 was 101 to 1000 nM in assay [1], 101 to 1000 nM in assay [2], 1000 to 10000 nM in assay [3] and greater than 10000 nM in assay [4].
On to `COC(=O)c1cc2ccc1C(=O)NCCCCCNc1nc(ncc1C)Nc1cc-2cnc1F` [Compound 19, methyl 2^6-fluoro-4^5-methyl-12-oxo-3,5,11-triaza-4(2,4)-pyrimidina-2(3,5)-pyridina-1(1,4)-benzenacyclododecaphane-1^3-carboxylate], for which the IC50 in assay [1] is 101 to 1000 nM; in assay [2] it was 101 to 1000 nM; in assay [3], 1000 to 10000 nM; in assay [4], greater than 10000 nM.
Regarding `Cc1cnc2nc1Nc1cccc(c1)CCNC(=O)c1ccc(cc1)-c1cnc(F)c(c1)N2` [Compound 22, 2^6-fluoro-4^5-methyl-3,5,9-triaza-4(2,4)-pyrimidina-2(3,5)-pyridina-1(1,4),6(1,3)-dibenzenacyclodecaphan-10-one], the IC50 in assay [1] was less than 10 nM; in assay [2], less than 10 nM; in assay [3], less than 10 nM; in assay [4], 11 to 100 nM.
Turning to `COc1cc2cc(c1)Nc1nc(ncc1C)Nc1cc(cnc1F)-c1ccc(cc1)C(=O)NCC2` [Compound 47, 2^6-fluoro-6^5-methoxy-4^5-methyl-3,5,9-triaza-4(2,4)-pyrimidina-2(3,5)-pyridina-1(1,4),6(1,3)-dibenzenacyclodecaphan-10-one], the IC50 was 101 to 1000 nM in assay [1], 101 to 1000 nM in assay [2], 1000 to 10000 nM in assay [3] and greater than 10000 nM in assay [4].
With `Cc1cnc2nc1Nc1cccc(c1)COCCCC(=O)N1CCN(CC1)c1cnc(F)c(c1)N2` [Compound 15, 2^6-fluoro-4^5-methyl-8-oxa-3,5-diaza-4(2,4)-pyrimidina-1(1,4)-piperazina-2(3,5)-pyridina-6(1,3)-benzenacyclododecaphan-12-one], the IC50 was in the range of 11 to 100 nM in assay [1], 101 to 1000 nM in assay [2], 101 to 1000 nM in assay [3] and 1000 to 10000 nM in assay [4].
As to `Cc1cnc2nc1Nc1cc(F)cc(c1)CCNC(=O)c1ccc(cc1S(C)(=O)=O)-c1cnc(F)c(c1)N2` [Compound 46, 2^6,6^5-difluoro-4^5-methyl-1^3(methylsulfonyl)-3,5,9-triaza-4(2,4)-pyrimidina-2(3,5)-pyridina-1(1,4),6(1,3)-dibenzenacyclodecaphan-10-one], the IC50 is less than 10 nM in assay [1], less than 10 nM in assay [2], 11 to 100 nM in assay [3] and 101 to 1000 nM in assay [4].
With `Cc1cnc2nc1NCCCCCNC(=O)c1ccc(cc1Cl)-c1cnc(F)c(c1)N2` [Compound 14, 1^3-chloro-2^6-fluoro-4^5-methyl-3,5,11-triaza-4(2,4)-pyrimidina-2(3,5)-pyridina-1(1,4)-benzenacyclododecaphan-12-one], the IC50 lay in the range of 101 to 1000 nM in assay [1], 101 to 1000 nM in assay [2], 1000 to 10000 nM in assay [3] and 1000 to 10000 nM in assay [4].
`CCNc1cc2ccc1C(=O)NCCCCCNc1nc(ncc1C)Nc1cc-2cnc1F` [Compound 44, 1^3-(ethylamino)-2^6-difluoro-4^5-methyl-3,5,11-triaza-4(2,4)-pyrimidina-2(3,5)-pyridina-1(1,4)-benzenacyclododecaphan-12-one]: the IC50 in assay [1] is 1000 to 10000 nM; in assay [2], 1000 to 10000 nM; in assay [3], greater than 10000 nM; in assay [4], greater than 10000 nM.
With `Cc1cnc2nc1NCCCCCNC(=O)c1ccc(cc1[N+](=O)[O-])-c1cnc(F)c(c1)N2` [Compound 10, 2^6-fluoro-4^5-methyl-1^3-nitro-3,5,11-triaza-4(2,4)-pyrimidina-2(3,5)-pyridina-1(1,4)-benzenacydododecaphan-12-one], the IC50 in assay [1] fell in the range of 11 to 100 nM; in assay [2] it was 101 to 1000 nM; in assay [3], 1000 to 10000 nM; in assay [4], 1000 to 10000 nM.
Take `COC(=O)c1cc2ccc1C(=O)NCCCc1cccc(c1)Nc1nc(ncc1C)Nc1cc-2cnc1F` [Compound 36, Methyl 2^6-fluoro-4^5-methyl-11-oxo-3,5,10-triaza-4(2,4)-pyrimidina-2(3,5)-pyridina-1(1,4),6(1,3)-dibenzenacycloundecaphan-1^3-carboxylate]: the IC50 in assay [1] is less than 10 nM; in assay [2], less than 10 nM; in assay [3], 11 to 100 nM; in assay [4], 101 to 1000 nM.
For the compound `Cc1cnc2nc1NCCCCCCC(=O)N1CCN(CC1)c1cnc(F)c(c1)N2` [Compound 2, 2^6-fluoro-4^5-methyl-3,5-diaza-4(2,4)-pyrimidina-1(1,4)-piperazina-2(3,5)-pyridinacyclododecaphan-12-one], the IC50 was 101 to 1000 nM in assay [1], 101 to 1000 nM in assay [2], 1000 to 10000 nM in assay [3] and 1000 to 10000 nM in assay [4].
